In patent US9486425B2 (NESTEC S.A., priority 2012, dated 2016):

Tests used:
Nrf2 = Nrf2 reporter assay (ARE-luciferase, AREc32 cells); format: cell-based; settings: 24 h, dose range 0 to 200 μM (FIG. 3)
Experimental: Activation of Nrf2 was measured using an Nrf2 reporter assay. This assay is based on the AREc32 cell line, from CRX biosciences (Dundee, Scotland), a stably transfected MCF7 (breast adenocarcinoma) cell line that contains a luciferase gene construct under the control of the ARE. […] Luciferase activity is determined using a luciferase kit form Promega (Madison, Wis.). The luciferase activity is proportional to the activation of Nrf2.
For each run the luciferase activities, measured in Relative Light Units (RLU), of all the wells were normalized with the mean of the luciferase activity of the cells only of all the plates. Among all the samples tested the normalization procedure was found not to affect the data and this observation permits the comparison of samples measured in different runs.
For each sample the Nrf2 activation was calculated as follows: […]
The luciferase content per sample allows a semi quantification of the Nrf2 activation by reflecting the amount of the Nrf2 activating molecule. […]

AREc32 cells = experiment: AREc32 cell viability (ATP quantification, Cell Titer-Glo); format: cell-based; settings: 24 h
Experimental: To determine the Nrf2 activation the samples were tested on AREc32 cells (seeded in 96 well plates) using 10 independent dilutions (1/2, 1/4, 1/6, 1/10, 1/15, 1/20, 1/25, 1/30, 1/40 and 1/50) and incubated for 24 hours at 37° C. in a 5% CO2/air incubator. The luciferase activity and the cell viability (ATP measurements) were determined using the Luciferase and Cell Titer-Glo kits from Promega.
The cell viability was also measured using a cell Titer-Glo kit (ATP quantification).

Heme oxygenase 1 (HO-1) = experiment: mRNA expression in hepatocytes (qPCR): heme oxygenase 1; format: cell-based; settings: rat hepatocytes, 24 h, dose range (FIG. 5)
Experimental: (§1) Hepatocytes were isolated from Sprague-Dawley male rats (190-240 g) by liver perfusion. […] After overnight incubation, the medium was removed and 2.5 ml of fresh medium containing the test substances was added. The dishes were incubated for 24 h at 37° C. in a 5% CO2/air incubator. Cell lysates for the RNA extraction were obtained by adding 400 μl of RNA lysis buffer (RA-1 with 1% v/v β-mercaptoethanol) to the cells and vigorously mixed (vortex). Total RNA was extracted from the cell lysates according manufacturer's instructions (Nucleospin RNA2 kit, Macherey-Nagel, Düren, Germany) with minor changes: 20 min of DNASE treatment and 60 μl of elution volume. Total RNAs were quantified using Ribogren kit (Molecular probes) and the quality was evaluated by capillary electrophoresis using Bionalyzer (Agilent). Reverse transcription reactions were performed with the Multiscribe reverse transcriptase enzyme in the presence of random hexamers primers (Reverse Transcription Reagent from Applied Biosystems). Gene expression quantification was performed using pre-designed TaqMan probes (Applied Biosystems). Each qPCR reaction was done in technical duplicates on 50 ng of cDNA. The arithmetic mean of two housekeeping genes (GAPDH and β-Actin) was used for normalization. The mRNA gene expression calculations are based on the ΔΔCt method: […] [table]

[1] = test system: NAD(P)H dehydrogenase quinone (Nqo1); experiment: mRNA expression in hepatocytes (qPCR): NAD(P)H dehydrogenase quinone; format: cell-based; settings: rat hepatocytes, 24 h, dose range (FIG. 5)
Experimental: as §1

[2] = test system: Glutamate cysteine ligase, catalytic subunit (Gclc); experiment: mRNA expression in hepatocytes (qPCR): glutamate cysteine ligase catalytic subunit; format: cell-based; settings: rat hepatocytes, 24 h, dose range (FIG. 5)
Experimental: as §1

[3] = test system: Glutathione-S-transferase, pi 1 (Gstp1); experiment: mRNA expression in hepatocytes (qPCR): glutathione-S-transferase; format: cell-based; settings: rat hepatocytes, 24 h, dose range (FIG. 5)
Experimental: as §1

[4] = test system: UDP-glucuronosyltransferase (UGT); experiment: mRNA expression in hepatocytes (qPCR): UDP-glucuronosyltransferase; format: cell-based; settings: rat hepatocytes, 24 h, dose range (FIG. 5)
Experimental: as §1

[5] = test system: Glutathione peroxidase 1 (Gpx1); experiment: mRNA expression in hepatocytes (qPCR): glutathione peroxidase 1; format: cell-based; settings: rat hepatocytes, 24 h, dose range (FIG. 5)
Experimental: as §1

[6] = test system: Glutathione peroxidase 2 (Gpx2); experiment: mRNA expression in hepatocytes (qPCR): glutathione peroxidase 2; format: cell-based; settings: rat hepatocytes, 24 h, dose range (FIG. 5)
Experimental: as §1

[7] = test system: Glutathione reductase (Gsr); experiment: mRNA expression in hepatocytes (qPCR): glutathione reductase; format: cell-based, rat; settings: liver cells (hepatocytes)
Experimental: as §1

hepatocytes = experiment: Hepatocyte viability (LDH measurement); format: cell-based; settings: rat hepatocytes, 24 h
Experimental: Hepatocytes were isolated from Sprague-Dawley male rats (190-240 g) by liver perfusion. Cells were seeded at 2500000 cells/dish (6 cm) in 2.5 ml of Williams'E medium supplemented with 2 mM L-glutamine, 10 mM Hepes (Sigma), 1% ITS+, 1% Penicillin/Streptomycin (Sigma) and 25 nM Dexamethasone (Sigma). After overnight incubation, the medium was removed and 2.5 ml of fresh medium containing the test substances was added. The dishes were incubated for 24 h at 37° C. in a 5% CO2/air incubator.
At the end of the incubation, the cell supernatants were harvested for LDH (lactate dehydrogenase) measurement, which is an indicator of cell viability. Cells were washed once with 2.5 ml of cold PBS 1× then detached from the Petri dishes by scraping. Cells were then transferred to 1.5 ml Eppendorf tubes which were centrifuged for 1 min at 4° C. at 7000 g.

NF-κB = NF-κB activity in HT-29 clone 34 cells (SEAP reporter and IL-8); format: cell-based, human
Experimental: Two in-vitro systems were used: human colonic cells (HT-29 clone 34) and human monocytes/macrophages (THP-1 blue cells). The human colonic adenocarcinoma HT-29 clone 34 cell line (passage 42-50) are adherent cells stably transfected with a NF-κB/SEAP reporter plasmid. They were cultured in DMEM high glucose (4.5 g/L) (Invitrogen) containing 1% of stable L-glutamine and supplemented with 10% of heat inactivated (one hour at 56° C.) Foetal Calf Serum (FCS) (Bioconcept, Allschwil, Switzerland), 1% of Penicillin/Streptomycin (Sigma) and 500 μg/ml of Geneticin (PAA, Pasching, Austria) at 37° C. in a 5% CO2/air incubator. Culture medium was renewed every two days until the cell monolayer reached ˜90% confluence. Cells were sub-cultured using 1× Trypsin/EDTA (Sigma). 10000 cells/well were seeded in 200 μl of culture medium in flat bottom white border 96 well plates (Greiner Bio One, Kremsmuenster, Austria). […] Cell culture supernatants were then collected for measurement of NF-κB activity (determination of secreted alkaline phosphatase and IL-8 production) using Phosphalight (Applied Biosystems) and IL-8 singleplex (Meso Scale, Gaithersburg, Md.) kits, respectively.

HT-29 clone 34 cells = experiment: HT-29 clone 34 cell viability (ATP, Cell Titer-Glo); format: cell-based, human
Experimental: 10000 cells/well were seeded in 200 μl of culture medium in flat bottom white border 96 well plates (Greiner Bio One, Kremsmuenster, Austria). […] 20 μl of experimental medium containing (or not) LPS 055:B5 or rhTNF-α (100 and 10 ng/ml final, respectively) was added and the plates were incubated for 24 hours at 37° C. in a 5% CO2/air incubator.
Cell viability was determined by measuring ATP using Cell Titer-Glo kit (Promega). Briefly, remaining adherent HT-29 clone 34 cells were incubated for 10 min at room temperature under horizontal shaking (250 rpm) with 120 μl of Cell Titer-Glo reagent (pre-diluted twice in 1×PBS) and the luminescence was measured using Polarstar microplate reader (BMG, Offenburg, Germany) for 1000 ms with a gain value set to 3500.

THP-1 blue cells = experiment: THP-1 blue cell viability (Cell Titer-Glo); format: cell-based, human
Experimental: 200000 cells/well were seeded in 100 μl of culture medium in 96 well flat bottom transparent plates. […] 20 μl of culture media containing (or not) LPS 055:B5 (Sigma) (100 ng/ml final) was added and the plates were incubated for 16 hours at 37° C. in a 5% CO2/air incubator.
Cell culture supernatants were carefully transferred to 96 well-plates for NF-κB activity measurement which is proportional to the level of secreted alkaline phosphatase. Briefly, 100 μl of supernatants were mixed with 150 μl of QuantiBlue (Invivogen) in a 96 well-plates incubated for 3 h at 37° C. before OD measurements at 620 nm with Sunrise microplate reader (Tecan, Mannedorf, Switzerland). Cell viability was determined using Cell Titer-Glo kit as described above.

SMILES: CC(=O)/C=C/C(=O)O [4-oxo-2-pentenoic acid]
- Nrf2 activation (Nrf2): strongly activate Nrf2 in a dose dependent manner
- doses at which viability of AREc32 cells was not affected (AREc32 cells): lower than 70 μM
- mRNA expression of heme oxygenase 1 (Heme oxygenase 1 (HO-1)): increased
- mRNA expression of NAD(P)H dehydrogenase quinone [1]: increased
- mRNA expression of glutamate cysteine ligase catalytic subunit [2]: increased
- mRNA expression of glutathione-S-transferase [3]: increased
- mRNA expression of UDP-glucuronosyltransferase (UGT) [4]: increased
- mRNA expression of glutathione peroxidase 1 [5]: not affected
- mRNA expression of glutathione peroxidase 2 [6]: not affected
- gene expression of glutathione reductase [7]: activated gene expression
- cell viability (LDH measurements) (hepatocytes): not affected
- dose giving the best inhibition of NF-κB activity (SEAP and IL-8) (NF-κB; HT-29 clone 34 cells stimulated with LPS): 50 µM
- inhibition of NF-κB activity (SEAP and IL-8 secretion) (NF-κB; HT-29 clone 34 cells stimulated with LPS (100 ng/ml), 4 h pre-incubation, 24 h): inhibits NF-κB activity in a dose dependent manner
- NF-κB activity (SEAP or IL-8) in the absence of LPS (NF-κB; HT-29 clone 34 cells, no LPS, doses tested 3 to 400 μM): no NF-κB activity was observed
- doses showing a decrease in cell viability (HT-29 clone 34 cells): > 50 µM
- doses toxic to cells (THP-1 blue cells): higher than 75 μM
